Data reported in paper PMC4453610 (British Journal of Cancer, 2014).

Assays:
clinical = settings: human, plasma, oral
[1] = Pharmacokinetic analysis of sorafenib in plasma of patients; assay type: in vivo, human; settings: compared with previous studies of 400 mg b.i.d. sorafenib
[2] = Day 1 of Cycle 2 vs Day 5 of Cycle 1
[3] = geometric mean, with vs without sorafenib

circulating concentrations of sorafenib when dosed in combination with cyclophosphamide and letrozole [1] | Compound | AUC(0-t) (clinical; AUC(0–24) Cycle 1, geometric mean, Day 5, Cycle 1, without sorafenib) | AUC(0-t) (clinical; AUC(0–24) Cycle 2, geometric mean, Day 1, Cycle 2, with 400 mg bid sorafenib) | average decrease in t1/2 when co-administered with sorafenib [2] | average decrease of AUC (0–24) when co-administered with sorafenib [2] | average reduction of Cmax when co-administered with sorafenib [2] | AUC(0–24) Ratio cycles 2/1, geometric mean [3] | Cmax Ratio cycles 2/1, geometric mean [3]
 | O=P1(N(CCCl)CCCl)NCCCO1 (centres unmarked) [cyclophosphamide] | 16700 ng·h/mL | 11900 ng·h/mL | 27% | 29% | 12% | 0.71 | 0.88
not significantly affected | CNC(=O)c1cc(Oc2ccc(NC(=O)Nc3ccc(Cl)c(C(F)(F)F)c3)cc2)ccn1 [sorafenib, Sorafenib] |  |  |  |  |  |  | 
